From patent US8906848B2, “Aureobasidin derivatives and methods of synthesis” (priority 2011, dated 2014)
Read-outs that look alike come from different tables or passages of the source. Starred links: 1 amine or outer side, 2 acyl side, 3 side chain; linkers in the order of their positions; H or OH if unused. Non-standard residues stand in square brackets, D forms with d. Residues, ends and D or L forms follow the SMILES beside them. NMePhe(3-(3-pyridyl)) = CN[C@@H](Cc1cccc(-c2cccnc2)c1)C(=O)O; NMePhe(3-Ph) = CN[C@@H](Cc1cccc(-c2ccccc2)c1)C(=O)O; X2 = CN([C@@H](Cc1cccc(B(O)O)c1)C(=O)[*:2])[*:1]; NMePhe(3-Br) = CN[C@@H](Cc1cccc(Br)c1)C(=O)O; Phe(3-Br) = N[C@@H](Cc1cccc(Br)c1)C(=O)O; X1 = CC[C@@H](C)[C@@H](O[*:1])C(=O)[*:2]; NMeVal(β-OH) = CN[C@H](C(=O)O)C(C)(C)O; aIle = CC[C@@H](C)[C@H](N)C(=O)O; NMeV = CN[C@H](C(=O)O)C(C)C

Legend:
[1] = Pharmacokinetic study in mice, oral gavage, plasma by HPLC-MS; assay type: in vivo; details: single 200 mg/kg oral gavage
Description: Referring to FIG. 5, mice were administered a single 200 mg/kg bolus dose of 3-pyridyl-mPhe^4-AbA (diamonds) or AbA (squares), by oral gavage. Blood was collected a timed intervals after administration of the drug and analyzed for compound content by HPLC-MS.

C. albicans = experiment: MIC, broth dilution CLSI M38-A2 with YPD medium (Table 2); assay type: cell-based
Description: (§1) The activities of several exemplary compounds of the present invention were assayed according to the CLSI standard M38-A2 titled “Reference Method for Broth Dilution Antifungal Susceptibility Testing of Filamentous Fungi”. However, the RPMI-1640 broth is substituted for a YPD medium formulated according to the following steps: […]
(§2) 1. Dissolve 10 g of BactoYeast extract in 500 ml water
(§3) 2. Dissolve 20 g of BactoPeptone in the above solution
(§4) 3. Dissolve 20 g Dextrose in the above solution* *Ordinary table sugar (sucrose) substituted for dextrose routinely.
(§5) 4. q.s. to 1000 ml with water

Candida albicans SC5413 = experiment: Candidiasis model in immunosuppressed mice, mortality; assay type: in vivo
Description: Referring to FIG. 6, Mice, immunosuppressed with cyclophosphamide, were inoculated with 8 log 10 CFU Candida albicans SC5413 and dosed (following inoculation) with 3-pyridyl-mPhe^4-AbA (or a control antibiotic) orally, BID, for four consecutive days. Efficacy was determined by enumerating mortality.

[2] = animals and humans; cited from earlier work
[3] = test system: Candida species, including C. albicans; details: virtually all Candida species; cited from earlier work
Aspergilli, A. fumigatus = details: most Aspergilli, most notably A. fumigatus; cited from earlier work
[4] = test system: Cryptococcus species, including C. neoformans; details: most Cryptococcus species; cited from earlier work
[5] = test system: Trychophyton rubrum 5279 (ATCC MYA-4438); experiment: MIC, antifungal spectrum (Table 3); assay type: cell-based; details: at 72 hrs
Description: as §1, §2, §3, §4, §5

[6] = test system: Sporothrix schenkii 892 (ATCC14284); experiment: MIC, antifungal spectrum (Table 3); assay type: cell-based; details: at 96 hrs
Description: as §1, §2, §3, §4, §5

[7] = test system: Fusarium oxysporum 0893 (ATCC48112); experiment: MIC, antifungal spectrum (Table 3); assay type: cell-based; details: at 96 hr
Description: as §1, §2, §3, §4, §5

[8] = test system: Trychophyton mentagrophytes 5278 (ATCC MYA-4439); experiment: MIC, antifungal spectrum (Table 3); assay type: cell-based; details: at 96 hrs
Description: as §1, §2, §3, §4, §5

A. fumigatus = experiment: MIC, broth dilution CLSI M38-A2 with YPD medium (Table 2); assay type: cell-based; details: compound purity ~85%
Description: as §1, §2, §3, §4, §5

[9] = YPD medium, compound purity ~85%

CCC(C)[C@@H]1NC(=O)[C@@H]2CCCN2C(=O)[C@H](Cc2ccccc2)N(C)C(=O)[C@H](Cc2ccccc2)NC(=O)[C@H](C(C)C)N(C)C(=O)[C@@H](C(C)CC)OC(=O)C(C(C)(C)O)N(C)C(=O)[C@H](CC(C)C)NC(=O)[C@H](C(C)C)N(C)C1=O (stereo in doubt) [AbA (native), Aureobasidin A]
plasma concentration trend at the end of the 12 hour experiment [1]: decreasing | MIC for C. albicans (C. albicans; [9]): <0.05 µg/mL | ED50 (Candida albicans SC5413; cyclophosphamide-immunosuppressed mice, oral, BID, four consecutive days, mortality): about 25 mg/kg | tolerability [2]: very well tolerated | efficacy against Candida species [3]: very efficacious | activity towards Aspergilli (Aspergilli, A. fumigatus): little activity | efficacy against Cryptococcus species [4]: efficacious

CC[C@@H](C)[C@@H]1NC(=O)[C@@H]2CCCN2C(=O)[C@H](Cc2cccc(-c3cccnc3)c2)N(C)C(=O)[C@H](Cc2ccccc2)NC(=O)[C@H](C(C)C)N(C)C(=O)[C@@H]([C@H](C)CC)OC(=O)[C@H](C(C)(C)O)N(C)C(=O)[C@H](CC(C)C)NC(=O)[C@H](C(C)C)N(C)C1=O [3-pyridyl-mPhe^4-AbA] (cyclo([X1][NMeV]F[NMePhe(3-(3-pyridyl))]P[aIle][NMeV]L[NMeVal(β-OH)]))
bioavailability and/or clearance as compared to the native drug [1]: enhanced bioavailability and/or a slower clearance | plasma concentration trend at the end of the 12 hour experiment [1]: still be increasing | plasma concentrations compared with the same dose of native AbA ([1]; same vehicle): significantly higher plasma concentrations | MIC for C. albicans (C. albicans): <0.05 µg/mL | MIC [5]: 2 at 72 hrs μg/ml | MIC [6]: >64 at 96 hrs μg/ml | MIC [7]: >64 at 96 hr μg/ml | MIC [8]: 0.5 at 96 hrs μg/ml | ED50 of native AbA relative to that of 3-pyridyl-mPhe^4-AbA (Candida albicans SC5413; Candidiasis model, mice, oral BID four days): almost four times higher

CC[C@@H](C)[C@@H]1NC(=O)[C@@H]2CCCN2C(=O)[C@H](Cc2cccc(B(O)O)c2)N(C)C(=O)[C@H](Cc2ccccc2)NC(=O)[C@H](C(C)C)N(C)C(=O)[C@@H]([C@H](C)CC)OC(=O)[C@H](C(C)(C)O)N(C)C(=O)[C@H](CC(C)C)NC(=O)[C@H](C(C)C)N(C)C1=O [B(OH)2-mPhe^4-AbA] (cyclo([X1][NMeV]F[X2]P[aIle][NMeV]L[NMeVal(β-OH)]))
MIC for C. albicans (C. albicans): <0.05 µg/mL

CC[C@@H](C)[C@@H]1NC(=O)[C@@H]2CCCN2C(=O)[C@H](Cc2cccc(Br)c2)N(C)C(=O)[C@H](Cc2cccc(Br)c2)NC(=O)[C@H](C(C)C)N(C)C(=O)[C@@H]([C@H](C)CC)OC(=O)[C@H](C(C)(C)O)N(C)C(=O)[C@H](CC(C)C)NC(=O)[C@H](C(C)C)N(C)C1=O [Br-Phe^3-Br-mPhe^4-AbA] (cyclo([X1][NMeV][Phe(3-Br)][NMePhe(3-Br)]P[aIle][NMeV]L[NMeVal(β-OH)]))
MIC for C. albicans (C. albicans): 5 µg/mL

CC[C@@H](C)[C@@H]1NC(=O)[C@@H]2CCCN2C(=O)[C@H](Cc2cccc(-c3ccccc3)c2)N(C)C(=O)[C@H](Cc2ccccc2)NC(=O)[C@H](C(C)C)N(C)C(=O)[C@@H]([C@H](C)CC)OC(=O)[C@H](C(C)(C)O)N(C)C(=O)[C@H](CC(C)C)NC(=O)[C@H](C(C)C)N(C)C1=O [Phenyl-mPhe^4-AbA] (cyclo([X1][NMeV]F[NMePhe(3-Ph)]P[aIle][NMeV]L[NMeVal(β-OH)]))
MIC for C. albicans (C. albicans): <0.05 µg/mL

Boronate-mPhe^4-AbA
MIC for A. fumigatus (A. fumigatus): 10 µg/mL | MIC for C. albicans (C. albicans; [9]): <0.5 µg/mL

Br-mPhe^4-AbA
MIC for A. fumigatus (A. fumigatus): 2.5 µg/mL | MIC for C. albicans (C. albicans; [9]): 0.031 µg/mL

I-mPhe^4-AbA
MIC for A. fumigatus (A. fumigatus): >5 µg/mL | MIC for C. albicans (C. albicans; [9]): 2.5 µg/mL

MeO-φ-mPhe^4-AbA
MIC for C. albicans (C. albicans; [9]): 5 µg/mL
